Source: US7678913B2, “Ureas as factor Xa inhibitors” (Portola Pharmaceuticals, Inc., priority 2004, dated 2010)
pIC50: −log10 of the molar value.

The compounds below were run against T1, human plasma protein factor Xa (Homo sapiens, UniProt P00742) (assay: Factor Xa IC50 determination (cleavage of chromogenic substrate S-2765)). Conditions: fXa 1 nM, S-2765 100 μM, Tris buffered saline pH 7.4, room temperature.
T1 construct: measure proteolytic activity of the enzyme (factor Xa); purchased Haematologic Technologies (Essex Junction, Vt.); host or cells: human plasma
Assay type: biochemical
In short: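 Human plasma factor Xa (1 nM) preincubated 5 min at room temperature with inhibitor (0.01 nM–10 μM final) in Tris-buffered saline pH 7.4 with CaCl2, BSA and 5% DMSO. S-2765 added at 100 μM; pNA release at 405 nm over 2 min; initial velocities fitted to four-parameter equation for IC50, duplicates.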

T1 sequence (P00742 235-488 limits assumed): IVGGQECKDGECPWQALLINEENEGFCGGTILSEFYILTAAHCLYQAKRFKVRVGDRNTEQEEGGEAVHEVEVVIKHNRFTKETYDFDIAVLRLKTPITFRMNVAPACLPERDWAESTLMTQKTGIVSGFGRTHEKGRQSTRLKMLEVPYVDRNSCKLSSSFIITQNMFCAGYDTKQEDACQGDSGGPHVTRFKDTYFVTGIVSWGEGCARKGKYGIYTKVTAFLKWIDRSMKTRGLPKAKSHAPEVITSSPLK
T1 sequence (P00742 41-179 partner limits assumed): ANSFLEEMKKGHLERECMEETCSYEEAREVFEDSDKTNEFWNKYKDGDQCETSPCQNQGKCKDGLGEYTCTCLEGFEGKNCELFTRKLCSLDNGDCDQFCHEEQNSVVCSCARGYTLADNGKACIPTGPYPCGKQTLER

Row | Compound | pIC50
1 | CC(=N)N1CCC(CNC(=O)C(NC(=O)Nc2ccc(Cl)cc2)c2ccccc2F)CC1 (stereo not drawn) [Example 54, N-[(N-acetimidyl-piperidin-4-yl)methyl]-2-(2-fluorophenyl)-2-(4-chlorophenylaminocarbonylamino)-acetamide] | 6.30 to 7.00
2 | CN1CCN=C1c1ccc(NC(=O)C(NC(=O)Nc2ccc(Cl)cc2)c2cccs2)cc1 (stereo not drawn) [Example 12, N-[4-(1-methyl-4,5-dihydro-1H-imidazol-2-yl)phenyl]-2-(2-thienyl)-2-(4-chlorophenylaminocarbonylamino)-acetamide] | ≥ 7.00
3 | O=C(Nc1ccc(Cl)cc1)NC(C(=O)NCC1CCNCC1)c1ccccc1F (stereo not drawn) [Example 53, N-(piperidin-4-ylmethyl)-2-(2-fluorophenyl)-2-(4-chlorophenylaminocarbonylamino)-acetamide] | ≤ 6.30
4 | CN1CCCN(c2ccc(NC(=O)C(NC(=O)Nc3ccc(Cl)cc3)c3ccccc3Cl)cc2)CC1 (stereo not drawn) [Example 102, N-[4-(4-methyl-homopiperazinyl)phenyl]-2-(2-chlorophenyl)-2-(4-chlorophenylaminocarbonylamino)-acetamide] | ≥ 7.00
5 | COc1ccccc1C(NC(=O)Nc1ccc(Cl)cc1)C(=O)Nc1ccc(N2CCCN(C)CC2)cc1 (stereo not drawn) [Example 111, N-[4-(4-methyl-homopiperazinyl)phenyl]-2-(2-methoxyphenyl)-2-(4-chlorophenylaminocarbonylamino)-acetamide] | ≥ 7.00
6 | Cc1ccccc1C(NC(=O)Nc1ccc(Cl)cc1)C(=O)Nc1ccc(C(=N)N2CCCC2)cc1 (stereo not drawn) [Example 87] | ≥ 7.00
7 | COc1ccccc1C(NC(=O)Nc1ccc(Cl)cc1)C(=O)N1CCC(N2CCOCC2=O)CC1 (stereo not drawn) [Example 148, 4-(3-morpholinon-4-yl)piperidin-1-yl-2-(2-methoxyphenyl)-2-(4-chlorophenylaminocarbonylamino)-acetamide] | ≥ 7.00
8 | CCOC(=O)C1CCN(C(=O)CC(NC(=O)Nc2ccc(Cl)cc2)C(=O)Nc2ccc(C3=NCCN3C)cc2)CC1 (stereo not drawn) [Example 67] | ≤ 6.30
9 | O=C(Nc1ccc(Cl)cc1)NC(C(=O)Nc1ccc(-c2cc[n+]([O-])cc2)cc1)c1ccccc1F (stereo not drawn) [Example 50, N-[4-(N-oxo-pyridin-4-yl)phenyl]-2-(2-fluorophenyl)-2-(4-chlorophenylaminocarbonylamino)-acetamide] | 6.30 to 7.00
10 | C#CCN(C)C(=N)c1ccc(NC(=O)C(NC(=O)Nc2ccc(Cl)cc2)c2ccccc2)cc1 (stereo not drawn) [Example 27, N-[4-(N-methyl-N-propargylaminoimino)phenyl]-2-phenyl-2-(4-chlorophenylaminocarbonylamino)-acetamide] | ≥ 7.00
11 | CN(C)NC(=N)c1ccc(NC(=O)C(NC(=O)Nc2ccc(Cl)cc2)c2ccccc2F)c(F)c1 (stereo not drawn) [Example 48, N-[4-(2,2-dimethylhydrazinoimino)-2-fluorophenyl]-2-(2-fluorophenyl)-2-(4-chlorophenylaminocarbonylamino)-acetamide] | 6.30 to 7.00
12 | CN1CCN=C1c1ccc(NC(=O)C(NC(=O)Nc2ccc(Cl)cc2)c2ccccc2F)cc1 (stereo not drawn) [Example 11, N-[4-(1-methyl-4,5-dihydro-1H-imidazol-2-yl)phenyl]-2-(2-fluorophenyl)-2-(4-chlorophenylaminocarbonylamino)-acetamide] | ≥ 7.00
13 | O=C(Nc1ccc(Cl)cc1)NC(C(=O)Nc1ccc(-c2cccc[n+]2[O-])cc1)c1ccccc1I (stereo not drawn) [Example 115, N-[4-(N-oxo-pyridin-2-yl)phenyl]-2-(2-iodophenyl)-2-(4-chlorophenylamino-carbonylamino)-acetamide] | ≥ 7.00
14 | CN1CCN=C1c1ccc(NC(=O)[C@H](CC(=O)O)NC(=O)Nc2ccc(Cl)cc2)cc1 [Example 60, (2S) N-[4-(1-methyl-4,5-dihydro-1H-imidazol-2-yl)phenyl]-2-carboxymethyl-2-(4-chlorophenylaminocarbonylamino)-acetamide] | ≤ 6.30
15 | O=C(Nc1ccc(Br)cc1)NC(C(=O)Nc1ccc(-c2cccc[n+]2[O-])cc1)c1ccccc1F (stereo not drawn) [Example 52, N-[4-(N-oxo-pyridin-2-yl)phenyl]-2-(2-fluorophenyl)-2-(4-bromophenylaminocarbonylamino)-acetamide] | ≥ 7.00
